# Test results reported in a melting point compilation (Tetko et al.; mined from patent text by program, amines drawn as free bases though some values may be those of a salt).
row,SMILES,melting point
1,CCOC(=O)C(=CNc1ccc2c(c1)CCC2)C(=O)OCC,25 to 30 °C
2,Cc1ccc(NCc2ccc(C(=O)Nc3ccccc3NC(=O)OC(C)(C)C)cc2)cc1Nc1nccc(-c2cccnc2)n1,125 °C
3,CCC(CC)n1cc(C)nc(N2CCc3cc(Cl)cc(Cl)c32)c1=O,137 to 139 °C
4,CC#CCOc1ccc(S(=O)(=O)C(C(=O)NO)C2CCN(C(C)=O)CC2)cc1 (centres undefined),103 °C
5,Cc1ccc(S(=O)(=O)NCCN(CCNS(=O)(=O)c2ccc(C)cc2)Cc2ccccc2)cc1,87 to 91 °C
6,CCC(C)(N=NC(C)(CC)NC(=O)NC1CCCCC1)NC(=O)NC1CCCCC1 (centres undefined),110 to 113 °C
7,O=C(CCc1nnc(Nc2ccccc2Cl)o1)NC1CCN(Cc2ccc(Cl)c(Cl)c2)CC1,154 to 156 °C
8,CN(C)c1cc(C(OC(=O)C(Cl)(Cl)Cl)c2ccccc2)c([N+](=O)[O-])cc1[N+](=O)[O-] (centres undefined),91 to 92 °C
9,CCOC(=O)c1cnc2sc(C(=O)Cc3ccccc3)c(C)c2c1O,208 to 214 °C
10,COc1cc(N(C)C)ccc1-c1nc2c(N[C@H]3[C@@H](C(N)=O)[C@@H]4C=C[C@H]3C4)c(Br)cnc2[nH]1,218 to 220 °C
11,O=C1NC(=O)N2c3ccc(Cl)cc3[C@H]3CCN4CCC[C@H]1[C@H]4[C@H]32 (racemic),243 °C
12,CC(C)c1ccc(CN2CCC(NC(=O)NC(=O)c3ccccc3)CC2)cc1,240 to 242 °C
13,Nc1nc2c(ncn2COCC(COC(=O)COc2ccccc2)OC(=O)COc2ccccc2)c(=O)[nH]1 (centres undefined),95 to 100 °C
14,COc1cccc(-c2nc(NC(=O)Nc3ccccn3)cs2)c1,201 to 203 °C
15,CCN1C(=O)c2cccnc2N(CC)c2ncccc21,102 to 103 °C
16,COc1ccc(-c2cc(C=O)cc3ccoc23)cc1,79 to 80 °C
17,CC(=O)c1c(CO[N+](=O)[O-])n(C(C)=O)c(=O)n1C(C)=O,135 to 136 °C
18,COc1ccc(Cl)cc1C1(F)C(=O)Nc2ccc(F)cc21 (centres undefined),205 to 207 °C
19,CCCOc1ccc(S(=O)(=O)N2CCN(CCOC(=O)CC)CC2)cc1-c1nc2c(CCC)cn(CC)c2c(=O)[nH]1,126 to 128 °C
20,CCN(CC)c1ccc(C(O)C#Cc2ccc(C(=O)O)c(O)c2)cc1C(C)(C)C (centres undefined),245 °C
21,COc1ccccc1NC(=O)Nc1nc(Nc2ccc3ccccc3c2)nc(N(CCC(=O)O)Cc2ccc(Cl)c(Cl)c2)n1,115 to 120 °C
22,COc1ccc(Nc2ccnc(F)c2)cc1,150 °C
23,O=c1ccn(-c2cccc(C(F)(F)F)c2)nc1-c1ccn[nH]1,192 to 194 °C
24,O=C(O)c1cc(OCc2ccccc2)cc(C(F)(F)F)c1,143 to 145 °C
25,CC(C)(C)OC(=O)N1CCN(CCOc2cccc3c2c2cccc4c2n3C(c2ccccc2)CO4)CC1 (centres undefined),72 °C

row,SMILES,melting point
1,COc1ccc(N)c(C(=O)Cc2nnnn2C)c1,170 to 172 °C
2,CCCn1c(-n2nc(-c3c(-c4ccccc4)nn4ccccc34)ccc2=O)cc(=O)n(CCC)c1=O,155 °C
3,CCCCOCc1cc2c3ccccc3[nH]c(=O)n2n1,170 to 172 °C
4,Cc1nc2c(N)nc3ccccc3c2n1Cc1cc(-c2ccc(F)cc2)no1,294 to 296 °C
5,CCOC(=O)c1ccc(OCCCCCCc2cccc(O)c2O)cc1O,63 to 68 °C
6,Oc1ccc2oc(-c3ccc(O)c(Cl)c3)nc2c1,254 to 256 °C
7,CC(=O)CCN1C(=O)c2ccccc2S1(=O)=O,118 to 119 °C
8,CCCc1nn(C)c2c1N=C(c1cc(C(=O)O)ccc1OCC)NC2,285 to 288 °C
9,Cc1cc(F)ccc1-c1nc(NC(C)(C)CO)nc2c1ccc(=O)n2-c1ccccc1F,106 to 112 °C
10,O=C(O)c1cc(Oc2ccc(Cl)cc2Cl)ccc1Br,132 to 133 °C
11,Cc1cc(C)c(CP(Cc2c(C)cc(C)cc2C)Cc2c(C)cc(C)cc2C)c(C)c1,148 to 158 °C
12,CN(C)CCC(CCO)c1ccncc1 (centres undefined),26 °C
13,CNc1nc(-c2cccc(NC(=O)c3ccccn3)c2)c2cc(OC)c(OC)cc2n1,175 to 177 °C
14,CC(Cc1ccc(CC2SC(=O)NC2=O)cc1)NCC(O)c1cc(Cl)c(N)c(Cl)c1 (centres undefined),195 to 201 °C
15,CC(C)Oc1ccc(C(=O)O)c(Cl)n1,173 to 174 °C
16,O=C(O)Cc1c(Cl)cnc2c(NC(=O)c3c(Cl)cccc3Cl)cccc12,257 to 259 °C
17,CC(=O)N1CCC(CCCCC(=O)O)CC1,198 to 203 °C
18,CC(=O)N1CCC(c2nn(-c3ccccc3)c3cc(Br)ccc23)CC1,136 to 138 °C
19,COC1=C(C)C(=O)OC1O (centres undefined),79 °C
20,CC(=O)OC1CSC(Oc2cncc(-c3cccs3)c2)C(OC(C)=O)C1OC(C)=O (centres undefined),166 °C
21,CCCC(=O)c1ccc(N2CCOCC2)cc1,64.5 to 65.5 °C
22,CCOc1nn(-c2ccccn2)cc1CCCOc1cccc(OC(C)(C)C(=O)O)c1,99 to 101 °C
23,Oc1ccc(Sc2ccc(F)cc2)c2ccccc12,195 to 198 °C
24,C#CCn1c(=O)n(-c2ccccc2)c2ccccc21,145 to 147 °C
25,CC(C)(C)OC(=O)c1cc(OCc2ccccc2)c(C(=O)c2c(OCc3ccccc3)cccc2C(=O)O)c(OCc2ccccc2)c1,151 to 156 °C

row,SMILES,melting point
1,O=C1NC(=O)C(Sc2ccc3cc(O)ccc3c2)S1 (centres undefined),182 to 183 °C
2,O=C(O)c1cc(Cl)cc2c1O[C@@H]1C=CCC[C@H]21 (relative stereo),147 to 150 °C
3,CC(O)(c1ccc(F)cc1)C1CCN(CCCC(=O)c2ccc(F)cc2)CC1 (centres undefined),116 to 118 °C
4,FC(F)(F)c1nnc(-c2ccc(Cl)cc2)n1-c1ccc(Cl)cc1,184 °C
5,Cc1nc2nc(-c3ccc(Cl)cc3)nn2c(=S)n1C,> 300 °C
6,Cc1c(C#N)c(=O)n(-c2cc(C(=O)OC(C)C)c(Cl)cc2F)c(=O)n1C,171 to 173 °C
7,O=[N+]([O-])c1ccc(C(Cl)=NNc2ccccc2)c(Cl)c1,124 to 126 °C
8,COCC1CN(c2ccc(C3CC4C=CC3C4)cc2)C(=O)O1 (racemic),46 to 48 °C
9,CCOC(=O)CNC(=O)Nc1ccc(OC)cc1F,158 to 159 °C
10,Cc1cc(C=Cc2ccccc2O)on1,236 to 238 °C
11,CC(C)c1nn2ccccc2c1Br,51 to 52 °C
12,CCOC(=O)C=Cc1ccc(NC(=O)Nc2cccnc2)cc1,188 to 189 °C
13,O=C(O)C1=Cc2cc(Cl)ccc2N(Cc2ccc([N+](=O)[O-])cc2)C1C(F)(F)F (centres undefined),225 to 228 °C
14,Cc1ccc(C2c3c(C)c(N4CCN(c5ccc(C(F)(F)F)cc5)CC4)c(C)c(C)c3OC2(C)C)cc1 (centres undefined),180 to 181 °C
15,COc1cc(-n2nc3ccc(Cl)cn3c2=O)c(F)cc1Cl,140 to 142 °C
16,O=Cc1ccc(C(F)(F)F)cc1[N+](=O)[O-],63 °C
17,CNC(=O)C(=NOC)c1ccccc1ON=C(C)c1cccc(C)c1,109 to 111 °C
18,COc1cc(N)c2cc[nH]c2c1,83 to 86 °C
19,Cc1cc2cc(CN3CCCCCC3)cnc2cc1NC(=O)c1ccc(-c2ccc(Cl)cc2)cc1,204 °C
20,Cc1c(C)c2c(c(C)c1N)CC(C)(C(=O)N1CCc3c([nH]c4ccccc34)C1)O2 (centres undefined),129 to 133 °C
21,CCOC(=O)C1C(=O)CC(C)(O)C(C(=O)OCC)C1c1cc(C)c2oc(C)c(C)c2c1 (centres undefined),168 to 171 °C
22,O=C1CCC(N2CCOc3cc(Br)ccc32)CC1,102 °C
23,O=C(c1cc(-c2ccc(Cl)c(Cl)c2)ccn1)N(O)Cc1ccccc1,125 to 130 °C
24,Cn1c(Cc2ccc(Cl)cc2Cl)nc2cc(C(=O)O)ccc2c1=O,266 to 271 °C
25,CCCOc1ccc(CC(=O)NCCc2ccc(OCC)c(OCC)c2)cc1OCCC,99 °C

row,SMILES,melting point
1,CC(C)(C)c1cc(CCN2CCN(CCc3ccc(CC(=O)O)cc3)CC2)cc(C(C)(C)C)c1O,210 to 213 °C
2,O=C1c2ccccc2C(=O)N1CCCCCCSc1ccc2ccccc2c1,109 to 110 °C
3,Cc1ccc(C(=O)c2c(-c3ccc(OCC(O)CNC(C)C)cc3)oc3ccccc23)cc1 (centres undefined),65 to 75 °C
4,Cn1cc(C(=O)Nc2ccccc2-c2cccc(C#N)c2)c(C(F)(F)F)n1,76 to 78 °C
5,CC(C)(C)c1ncc(C=O)cn1,82 to 83 °C
6,CCN(CC)C/C=C/c1ccc2c(Nc3ccc(Sc4nccn4C)c(Cl)c3)c(C#N)cnc2c1,223 to 228 °C
7,CCN(CC)CCNC(=O)c1cc(Cl)c(N)cc1OCC(=O)c1cccs1,135 to 139 °C
8,O=S(c1[nH]c(-c2ccc(Cl)cc2)c(Br)c1Br)C(F)(F)F (centres undefined),173 to 176 °C
9,COC1CN(c2ccc([N+](=O)[O-])cc2F)C1,57.5 to 58 °C
10,COc1ccc(C(=O)Nc2ccc(F)c(F)c2)cc1NCc1cccc(O)c1,160 to 163 °C
11,C[Si](CCSCCNC(=O)n1cc(F)c(=O)[nH]c1=O)(c1ccccc1)c1ccccc1,119 to 120 °C
12,CC(C)C[C@H]1COCC(=O)N1,69 to 70 °C
13,COC(=O)c1ccc2c(c1)C(=O)N(c1ccccc1)C2=O,200 to 207 °C
14,CC(C)(O)CCCCCc1cccc(CCc2ccc(O)c(CO)c2)c1,73 to 75 °C
15,CCOC(=O)c1cn2c(cc(OC)c3cc(OC)c(OC)cc32)n1,195 to 197 °C
16,CN(C)CCCNC(=O)Cn1cnc(-c2ccccc2)c1-c1ccccc1,92 to 94 °C
17,CCCC[C@]1(CC)CSc2cc(OC)c(OC)cc2[C@@H](c2ccccc2)N1,64 to 66 °C
18,CS(=O)(=O)Nc1ccc(OC2CCCC2)cc1,140 to 142 °C
19,CC(C)Oc1ccc(-c2nc3c4ccccc4ccc3n2C)cc1,144 to 145 °C
20,COc1cc2c(cc1Nc1ncc(Cl)c(Nc3ccc(N(C)C)cc3OC)n1)CCN(CC(=O)N(C)C)CC2,69 to 83 °C
21,Nc1ccc(N2C(=O)c3ccccc3C2=O)cc1S(F)(F)(F)(F)F,176 to 178 °C
22,CC(C)c1ccc2c(c1)C(c1ccc(Cl)c(Cl)c1)Cc1cnc(N)nc1-2 (centres undefined),174 to 176 °C
23,CC(C)C(=O)c1ccc(F)cc1O,160 °C
24,Cc1ccc(-c2[nH]c(C3CCCCC3)nc2C(=O)O)cc1,205 to 206 °C
